Experimental findings from patent publication US20050287600A1, “Method for screening for agents preventing aggregation of potentially amyloidogenic proteins” (priority 2002, published 2005) are described below.

Molecules are shown by their SMILES.

This test deals with T1, human ataxin-3 (Q36) (Homo sapiens, UniProt P54252, INS305QQQQQQQQQQQQQQQQQQQQQQQQQQ).
T1 construct: glutathione S-transferase (GST), PreScission Protease site (N, cleaved yes); made in house; host or cells: Escherichia coli BL21 codon plus RIL (plasmid pGEX6P-1)
The test can be described thus: Heat-induced amyloid fibre formation / aggregation screening assay. Format: biochemical. The conditions noted are these: 10 microM Congo red; ataxin-3 (Q36) about 0.1 mg/ml in 10 mM sodium phosphate, pH 7.0, incubated at growing temperatures. Here is the method:
The screening procedure encompasses a) mixing the protein of interest with the compound to be assayed for its ability to prevent aggregation b) gradually increasing the temperature c) detecting the appearance of amyloid fibres by turbidimetric measurements, and/or by visual inspection of the mixture, and/or by determining its protein content before and after spinning down the aggregated protein. In the control sample, no compound is added so heating results in amyloid fibre formation and ensuing protein precipitation and clouding of the solution. In contrast, a compound capable of preventing aggregation also prevents or reduces clouding, along with protein precipitation on centrifugation. Protein concentration is typically about 0.1 mg per ml. Human ataxin-3 (Q36) was dissolved in 10 mM sodium phosphate, pH 7.0 at a final concentration of about 0.1 mg/ml and incubated at growing temperatures. […] Congo red is a well-known antiamyloidogenic compound. On incubating human ataxin-3 (Q36) in the presence of 10 microM Congo red and otherwise under the conditions depicted in example 3, protein aggregation phenomena observed in the absence of the dye were prevented.

T1 sequence (P54252 with tags, fused parts or gaps with the stated changes): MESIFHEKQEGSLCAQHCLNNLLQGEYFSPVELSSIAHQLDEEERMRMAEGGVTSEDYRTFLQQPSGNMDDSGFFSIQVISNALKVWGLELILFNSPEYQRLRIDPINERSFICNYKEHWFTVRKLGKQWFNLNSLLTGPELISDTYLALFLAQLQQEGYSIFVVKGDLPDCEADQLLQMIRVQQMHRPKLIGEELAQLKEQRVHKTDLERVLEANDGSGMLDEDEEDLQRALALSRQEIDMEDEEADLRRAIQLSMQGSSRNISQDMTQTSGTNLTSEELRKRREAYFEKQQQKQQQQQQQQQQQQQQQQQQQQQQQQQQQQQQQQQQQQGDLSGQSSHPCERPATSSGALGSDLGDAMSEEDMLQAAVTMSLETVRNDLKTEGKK

For `Nc1c(/N=N/c2ccc(-c3ccc(/N=N/c4cc(S(=O)(=O)O)c5ccccc5c4N)cc3)cc2)cc(S(=O)(=O)O)c2ccccc12` [Congo red], the “protein aggregation (amyloid fibre formation) on heating” value is reported as “prevented”.
